The test system of test [1] is HL60-ABCB1 cells. The experiment in a line: XTT proliferation / drug combination assay. The conditions noted are these: read-out: IC50 (IC50-shift analysis). (Tetrazolium dyes change colour on reduction, which living cells bring about.)
Test [2] deals with A431-ABCB1 cells. The experiment in a line: MTT proliferation / drug combination assay. The conditions noted are these: read-out: IC50 (IC50-shift analysis).
The subject of test [3] is MDCKII-ABCB1 cells. Kind of test: MTT proliferation / drug combination assay. As to conditions: Canis lupus familiaris, read-out: IC50 (IC50-shift analysis).
Test [4] concerns A431-par cells. Kind of test: MTT proliferation / drug combination assay. As to conditions: read-out: IC50 (IC50-shift analysis). It counts as cell-based. The protocol: (§1) These colorimetric assays were used in various studies presented in this paper (prior induction studies, MDR reversal experiments and comparative viability assays) and were performed as reported previously. […] In MTT experiments, cells were seeded on a 96-well culture plate at densities (in number of cells/well) of 1.3 × 10^4 for MDCKII-par, MDCKII-ABCB1 and MDCKII-ABCG2; 1.2 × 10^4 for A431-par, A431-ABCB1, A431-ABCG2 and A431-ABCC1; 1.2 × 10^4 for NCI-H1299; 1.0 × 10^4 for A459; 2.0 × 10^4 for Caco-2; 5.0 × 10^4 for LS174T; and 1.0 × 10^4 for primary NSCLC explants. On the other hand, for XTT cells were seeded with densities 2.0 × 10^4 for HL60-par, HL60-ABCB1, HL60-ABCG2 and HL60-ABCC1 cells/well on 96-well plates. […] Following 48 h incubation with drugs, Opti-MEM solutions of MTT or XTT (1 mg/mL) with phenazine methosulfate solution (7.50 μg/mL; only for XTT) was added and the cells were incubated for 1 h with the exception of HL60s that were incubated for 5 h.
(§2) Based on the computed CI values, the effects of drug combinations were classified as synergistic (CI < 0.9), additive (0.9 < CI < 1.1) or antagonistic (CI > 1.1).

In test [5] the test system is MDCKII-parent cells. The experiment in a line: MTT proliferation / drug combination assay. The class given is cell-based, canine. The conditions noted are these: Canis lupus familiaris, read-out: IC50 (IC50-shift analysis). Here is the method:
as §1, §2

For test [6], the system named is HL60-par cells. Kind of test: XTT proliferation / drug combination assay. The class given is cell-based. As to conditions: read-out: IC50 (IC50-shift analysis). Here is the method: as §1, §2
Test [7] relates to HL60-ABCG2 cells. The experiment in a line: XTT proliferation / drug combination assay. As to conditions: read-out: IC50 (IC50-shift analysis).
In test [8] the test system is A431-ABCG2 cells. Kind of test: MTT proliferation / drug combination assay. As to conditions: read-out: IC50 (IC50-shift analysis).

As for `COc1cccc2c1C(=O)c1c(O)c3c(c(O)c1C2=O)C[C@@](O)(C(C)=O)C[C@@H]3O[C@H]1C[C@H](N)[C@H](O)[C@H](C)O1` [daunorubicin], the IC50 in test [1] came to 2140 nM; in test [2], 21700 nM; in test [3], 11900 nM; in test [4], 1990 nM; in test [5], 947 nM; in test [6], 53.1 nM.

As to `O=C1c2c(O)ccc(O)c2C(=O)c2c(NCCNCCO)ccc(NCCNCCO)c21` [mitoxantrone], the IC50 was 2100 nM in test [4], 669 nM in test [7], 30.5 nM in test [6] and 56500 nM in test [8].

The record behind these values is PMC8584989 (International Journal of Molecular Sciences, 2021).
